Our source for the Activity, MIC and HC50 values is ChEMBL document CHEMBL3124790, “Antibacterial properties and mode of action of new triaryl butene citrate compounds” (Eur J Med Chem, 2014).

Data set [1] concerns Listeria monocytogenes. As to the kind of experiment: Antimicrobial activity against Listeria monocytogenes assessed as induction of Na+ efflux assessed per mg of cell dry weight at 2 ug/ml after 30 mins by spectrometry analysis. The format is functional.
For data set [2], the system named is Listeria monocytogenes. In words: Antimicrobial activity against Listeria monocytogenes assessed as induction of K+ efflux assessed per mg of cell dry weight at 2 ug/ml after 30 mins by spectrometry analysis. The data set is classed as functional.
Data set [3] deals with Escherichia coli. As to the kind of experiment: Antimicrobial activity against Escherichia coli MC4100 assessed as blurred boundaries and highly altered cell walls at 5 times MIC after 5 mins by transmission electron microscopy analysis. The data set is classed as functional, organism-based.
In data set [4] the test system is Escherichia coli. As to the kind of experiment: Antimicrobial activity against Escherichia coli MC4100 assessed as damage of inner or outer membranes at 5 times MIC after 5 mins by transmission electron microscopy analysis. The format is functional, organism-based.
In data set [5] the test system is Listeria ivanovii. As to the kind of experiment: Antimicrobial activity against Listeria ivanovii HPB20 assessed as appearance of swollen and severely damaged morphology at 5 times MIC after 5 mins by transmission electron microscopy analysis. The data set is classed as functional.
For data set [6], the system named is Listeria ivanovii. In words: Antimicrobial activity against Listeria ivanovii HPB20 assessed as loss of integrity at 5 times MIC after 5 mins by transmission electron microscopy analysis. The data set is classed as functional.
Data set [7] concerns Listeria ivanovii. As to the kind of experiment: Antimicrobial activity against Listeria ivanovii HPB20 assessed as condensed and localized intracellular content at 5 times MIC after 5 mins by transmission electron microscopy analysis. The data set is classed as functional, cell-based.
For data set [8], the system named is Listeria ivanovii. In words: Antimicrobial activity against Listeria ivanovii HPB28 after 24 hrs by polystyrene micro-assay. The format is functional. The settings on record: HPB28, 24 h.
Data set [9] concerns Listeria monocytogenes. As to the kind of experiment: Antimicrobial activity against Listeria monocytogenes LSD 532 after 24 hrs by polystyrene micro-assay. The format is functional. The settings on record: LSD 532, 24 h.
Data set [10] deals with Listeria monocytogenes. As to the kind of experiment: Antimicrobial activity against Listeria monocytogenes LMA 1045 after 24 hrs by polystyrene micro-assay. The format is functional. As to conditions: LMA 1045, 24 h.
The subject of the next data set is Enterococcus faecalis. In words: Antimicrobial activity against Enterococcus faecalis ATCC 27275 after 24 hrs by polystyrene micro-assay. The data set is classed as functional. The settings on record: ATCC 27275, 24 h.
The test system of the next data set is Staphylococcus aureus. As to the kind of experiment: Antimicrobial activity against Staphylococcus aureus ATCC 6538 after 24 hrs by polystyrene micro-assay. The data set is classed as functional. The settings on record: ATCC 6538, 24 h.
The test system of data set [11] is Escherichia coli. In words: Antimicrobial activity against Escherichia coli MC4100 after 24 hrs by polystyrene micro-assay. The format is functional. As to conditions: MC4100, 24 h.
Data set [12] deals with Escherichia coli. As to the kind of experiment: Antimicrobial activity against Escherichia coli ATCC 11229 after 24 hrs by polystyrene micro-assay. The format is functional. The settings on record: ATCC 11229, 24 h.
The subject of another data set is Pseudomonas aeruginosa. As to the kind of experiment: Antimicrobial activity against Pseudomonas aeruginosa ATCC 15442 after 24 hrs by polystyrene micro-assay. The settings on record: ATCC 15442, 24 h. The format is functional.
In data set [13] the test system is Salmonella enterica subsp. enterica. In words: Antimicrobial activity against Salmonella enterica ATCC 14028 after 24 hrs by polystyrene micro-assay. The data set is classed as functional. The settings on record: ATCC 14028, 24 h.
A short description of data set [14]: Hemolytic activity in erythrocytes (unknown origin) after 1 hr. The data set is classed as ADME, cell-based, Erythrocyte.
For data set [15], the system named is Escherichia coli. In words: Antimicrobial activity against Escherichia coli MC4100 assessed as uniform electron density of cytoplasm and formation of mesosome-like structure at 5 times MIC after 5 mins by transmission electron microscopy analysis. The format is functional, organism-based.
In data set [16] the test system is Listeria monocytogenes. As to the kind of experiment: Antimicrobial activity against Listeria monocytogenes assessed as induction of K+ efflux assessed per mg of cell dry weight at MIC after 30 mins by spectrometry analysis. The data set is classed as functional.
For data set [17], the system named is Listeria monocytogenes. As to the kind of experiment: Antimicrobial activity against Listeria monocytogenes assessed as induction of K+ efflux assessed per mg of cell dry weight at 2 to 5 times MIC after 30 mins by spectrometry analysis. The data set is classed as functional.
Data set [18] has as its system Listeria monocytogenes. As to the kind of experiment: Antimicrobial activity against Listeria monocytogenes assessed as induction of Na+ efflux assessed per mg of cell dry weight at 5 times MIC after 30 mins by spectrometry analysis. The data set is classed as functional.

In brackets after ≈: the same amount, converted by molar mass. Activity calls are given as the source filed them. No cut-off for these calls is given here. Some results are limits rather than exact numbers.

Consider `C=C(NC(=O)[C@@H](NC(=O)[C@H](Cc1cnc[nH]1)NC(=O)[C@@H](NC(=O)[C@H](CO)NC(=O)[C@@H]1CSC(C)[C@@H]2NC(=O)[C@H](C)NC(=O)[C@@H](NC(=O)N(CCCCN)C(=O)[C@H](CCCCN)NC(=O)[C@@H](CCSC)NC(=O)[C@H](CC(N)=O)NC(=O)[C@@H]3CSC(C)[C@H](NC(=O)[C@H](CCCCN)NC(=O)[C@@H]4CSC(C)[C@H](NC(=O)[C@@H]5CSC[C@H](NC(=O)/C(=C/C)NC(=O)[C@@H](N)[C@@H](C)CC)C(=O)N[C@@H](CC(C)C)C(=O)NC(=C)C(=O)N[C@@H](CC(C)C)C(=O)N5)C(=O)N5CCC[C@H]5C(=O)NCC(=O)N4)C(=O)NCC(=O)N[C@@H](C)C(=O)N[C@@H](CC(C)C)C(=O)N[C@H](CCSC)C(=O)NCC(=O)N3)C(C)SC[C@H](NC2=O)C(=O)N[C@@H](Cc2cnc[nH]2)C(=O)N1)[C@@H](C)CC)C(C)C)C(=O)N[C@@H](CCCCN)C(=O)O` (stereo not given in full), for which the Activity is given as 635.96 nmol in the data set with Listeria monocytogenes [1] and 361.79 nmol with Listeria monocytogenes [2].
In the case of `CN(C)CCCOc1ccc(C(=C2CCc3ccccc32)c2ccc(OCCCN(C)C)cc2)cc1`, the outcome in the data set on Escherichia coli [3], in the data set on Escherichia coli [4], in the data set on Listeria ivanovii [5], in the data set with Listeria ivanovii [6] and with Listeria ivanovii [7] was Active. For the same molecule, the MIC amounted to 25 µM (≈ 12.1 µg/mL) against Listeria ivanovii [8]; 31 µM (≈ 15 µg/mL) with Listeria monocytogenes [9]; 62 µM (≈ 30.1 µg/mL) with Listeria monocytogenes [10]; 40 µM (≈ 19.4 µg/mL) against Enterococcus faecalis; 31 µM (≈ 15 µg/mL) against Staphylococcus aureus; 100 µM (≈ 48.5 µg/mL) against Escherichia coli [11]. In addition, the MIC was found to be 100 µM (≈ 48.5 µg/mL) with Escherichia coli [12], 2500 µM (≈ 1210 µg/mL) in the data set on Pseudomonas aeruginosa and 2500 µM (≈ 1210 µg/mL) in data set [13]. In addition, the HC50 at 1 h in [14] came to 68.6 µM.
As for `CCC(=C(c1ccc(OCCCN(C)C)cc1)c1ccc(OCCCN(C)C)cc1)c1ccccc1.O=C(O)CC(O)(CC(=O)O)C(=O)O`, the result with Escherichia coli [15], in the data set with Escherichia coli [3], in the data set on Escherichia coli [4], with Listeria ivanovii [5] and with Listeria ivanovii [6] was Active. Also, the Activity is listed as 183.74 nmol with Listeria monocytogenes [16], 344 nmol with Listeria monocytogenes [17] and 68% in the data set with Listeria monocytogenes [18]. For the same molecule, the MIC in the data set with Listeria ivanovii [8] was 25 µM; in the data set with Listeria monocytogenes [9] it was 31 µM; against Listeria monocytogenes [10] it was 62 µM; with Enterococcus faecalis, 80 µM; against Staphylococcus aureus, 31 µM; in the data set with Escherichia coli [11] it was 50 µM. Also, the MIC is 50 µM in the data set on Escherichia coli [12], greater than 5000 µM with Pseudomonas aeruginosa and 1250 µM in [13]. The same molecule displayed an HC50 at 1 h in data set [14] of 67.1 µM.

As a reminder, the MIC is the least concentration at which growth counts as inhibited. A low value points to inhibition by little substance. By HC50 is commonly meant the concentration that lyses half of the red blood cells.
